Results as given in ChEMBL document CHEMBL3887002, “Biaryl ether sulfonamides and their use as therapeutic agents” (2016).

Biological target: Sodium channel protein type 9 subunit alpha (Homo sapiens, UniProt Q15858)
Assay: Electrophysiological Assay (In vitro Assay): Patch voltage clamp electrophysiology allows for the direct measurement and quantification of block of voltage-gated sodium channels (Nav's), and allows the determination of the time- and voltage-dependence of block which has been interpreted as differential binding to the resting, open, and inactivated states of the sodium channel (Hille, B., Journal of General Physiology (1977), 69: 497-515).The following patch voltage clamp electrophysiology studies were performed on representative compounds of the invention using human embryonic kidney cells (HEK), permanently transfected with an expression vector containing the full-length cDNA coding for the desired human sodium channel α-subunit, grown in culture media containing 10% FBS, 1% PSG, and 0.5 mg/mL G418 at 37° C. with 5% CO2. […] Nav1.7 and Nav1.5 cDNAs (NM_00297
Assay type: cell-based, HEK293

Sodium channel protein type 9 subunit alpha, sequence (Q15858 whole entry): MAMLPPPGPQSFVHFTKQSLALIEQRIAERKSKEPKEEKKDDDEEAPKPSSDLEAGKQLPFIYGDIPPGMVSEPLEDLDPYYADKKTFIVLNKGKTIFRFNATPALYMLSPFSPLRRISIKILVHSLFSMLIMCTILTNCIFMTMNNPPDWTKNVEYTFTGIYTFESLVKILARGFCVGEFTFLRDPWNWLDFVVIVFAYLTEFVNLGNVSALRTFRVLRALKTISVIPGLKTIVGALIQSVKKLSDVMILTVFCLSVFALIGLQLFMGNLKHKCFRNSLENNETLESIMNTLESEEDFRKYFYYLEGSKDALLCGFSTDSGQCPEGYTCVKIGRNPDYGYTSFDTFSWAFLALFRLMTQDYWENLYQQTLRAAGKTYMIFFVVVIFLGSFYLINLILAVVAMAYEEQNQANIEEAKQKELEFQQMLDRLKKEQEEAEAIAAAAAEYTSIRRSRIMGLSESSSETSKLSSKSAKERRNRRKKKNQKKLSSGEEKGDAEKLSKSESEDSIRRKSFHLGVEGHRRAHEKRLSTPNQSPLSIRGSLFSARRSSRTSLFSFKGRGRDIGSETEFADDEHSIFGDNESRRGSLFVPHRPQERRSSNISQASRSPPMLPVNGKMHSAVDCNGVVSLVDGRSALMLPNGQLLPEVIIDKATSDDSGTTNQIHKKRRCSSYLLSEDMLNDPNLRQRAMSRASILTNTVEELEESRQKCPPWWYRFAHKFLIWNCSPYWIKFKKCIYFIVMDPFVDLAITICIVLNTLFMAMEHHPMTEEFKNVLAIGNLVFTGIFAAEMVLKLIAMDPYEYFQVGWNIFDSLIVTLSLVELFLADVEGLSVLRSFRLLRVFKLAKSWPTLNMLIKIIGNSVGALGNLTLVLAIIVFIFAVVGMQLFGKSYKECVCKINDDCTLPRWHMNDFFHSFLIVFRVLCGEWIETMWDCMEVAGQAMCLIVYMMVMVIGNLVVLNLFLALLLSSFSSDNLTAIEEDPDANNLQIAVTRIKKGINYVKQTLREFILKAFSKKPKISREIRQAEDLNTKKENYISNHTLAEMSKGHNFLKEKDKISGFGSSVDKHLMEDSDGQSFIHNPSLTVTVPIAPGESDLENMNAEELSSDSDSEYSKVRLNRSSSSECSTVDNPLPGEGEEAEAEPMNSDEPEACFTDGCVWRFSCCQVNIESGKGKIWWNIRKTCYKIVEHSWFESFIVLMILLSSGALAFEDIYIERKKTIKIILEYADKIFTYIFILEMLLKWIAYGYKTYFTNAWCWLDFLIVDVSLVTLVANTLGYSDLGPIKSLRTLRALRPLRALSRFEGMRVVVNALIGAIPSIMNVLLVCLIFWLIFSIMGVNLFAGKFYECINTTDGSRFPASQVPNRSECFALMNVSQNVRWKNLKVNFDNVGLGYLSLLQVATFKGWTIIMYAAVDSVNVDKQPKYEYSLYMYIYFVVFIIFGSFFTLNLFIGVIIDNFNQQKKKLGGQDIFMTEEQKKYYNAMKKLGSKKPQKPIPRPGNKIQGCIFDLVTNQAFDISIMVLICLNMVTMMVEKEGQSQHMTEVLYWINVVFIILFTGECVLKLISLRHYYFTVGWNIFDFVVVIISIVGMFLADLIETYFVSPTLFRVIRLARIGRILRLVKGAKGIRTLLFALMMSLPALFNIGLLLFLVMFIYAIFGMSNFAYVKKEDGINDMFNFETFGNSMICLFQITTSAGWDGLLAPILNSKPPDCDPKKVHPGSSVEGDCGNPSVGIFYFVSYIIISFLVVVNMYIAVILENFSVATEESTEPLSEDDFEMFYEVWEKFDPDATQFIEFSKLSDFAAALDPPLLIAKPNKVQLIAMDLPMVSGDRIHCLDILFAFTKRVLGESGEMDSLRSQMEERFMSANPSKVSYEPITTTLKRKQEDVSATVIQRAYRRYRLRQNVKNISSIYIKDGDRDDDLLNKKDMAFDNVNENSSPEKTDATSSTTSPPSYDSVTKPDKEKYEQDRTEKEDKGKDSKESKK

O=S(=O)(Nc1ncccc1F)c1cc(F)c(Oc2ccc(Cl)cc2-c2cccc3nccn23)cc1F
IC50: 0.0232 µM
